{"source": "patent US10822431B2", "about": "“Fucoidan preparation, zinc-bound fucoidan and use thereof” (South Product Ltd., priority 2015, dated 2020)", "test_system": "Hep G2 cells", "assay": "Cytotoxicity test using Hep G2 cells (MTT assay)", "type": "cell-based", "details": "up to 500 μg/ml; zinc only as a comparison", "procedure": "Cytotoxicity Test Using Hep G2 Cells:\n[…] P. (2000). “Cytotoxicity and Viability Assays”. In Masters, J. R. W. Animal Cell Culture: A Practical Approach, 3rd) using Hep G2 cells were conducted on these preparations.", "data": [{"smiles": "[Zn]", "note": "[zinc]", "values": [{"measurement": "Cytotoxicity of Hep G2 cells", "result": "no cytotoxicity of Hep G2 cells was confirmed"}]}]}
